What was measured:
Mythimna separata [1] = test: Antifeedant activity against third-instar larvae of Mythimna separata (Oriental armyworm) at 2 mg/ml applied on wheat leaf after 48 hr by non-choice leaf disk method relative to control; assay type: functional
Mythimna separata [2] = test: Antifeedant activity against third-instar larvae of Mythimna separata (Oriental armyworm) at 2 mg/ml applied on wheat leaf after 24 hr by non-choice leaf disk method relative to control; assay type: functional

Structure (SMILES) | AFI (Mythimna separata [1]) [%] | AFI (Mythimna separata [2]) [%]
C=C(C)[C@H]1[C@H]2OC(=O)[C@@H]1[C@@]1(O)[C@H]3O[C@H]3[C@]3(CO3)[C@]1(C)[C@@H]2O [TUTIN] | 31.8 | 22.7
CS(=O)(=O)Oc1ccc2ccc(=O)oc2c1 [7-METHANESULFONYLOXYCOUMARIN] | 53.7 | 62.4
O=C(Oc1ccc2ccc(=O)oc2c1)c1cc([N+](=O)[O-])cc([N+](=O)[O-])c1 [7-(3,5-DINITROBENZOYLOXY)COUMARIN] | 49.1 | 46.7
O=C(Oc1ccc2ccc(=O)oc2c1)c1ccc(Cl)cc1Cl [7-(2,4-DICHLOROBENZOYLOXY)COUMARIN] | 18.3 | 6.3
O=C(Oc1ccc2ccc(=O)oc2c1)c1ccc([N+](=O)[O-])cc1 [7-(4-NITROBENZOYLOXY)COUMARIN] | 10.8 | -7.5
C=C1CC[C@@H]2[C@](C)(CO)[C@H](O)CC[C@@]2(C)[C@@H]1C/C=C1/C(=O)OC[C@H]1O [ANDROGRAPHOLIDE] | 9.6 | 26.7
O=C(Oc1ccc2ccc(=O)oc2c1)c1ccc(Cl)nc1 [7-(6-CHLORONICOTINOYLOXY)COUMARIN] | 37.9 | 45.3
COc1ccc(C(=O)Oc2ccc3ccc(=O)oc3c2)cc1 [7-(4-METHOXYBENZOYLOXY)COUMARIN] | 35.4 | 32.3
O=C(Oc1ccc2ccc(=O)oc2c1)c1ccc(Cl)cc1 [7-(4-CHLOROBENZOYLOXY)COUMARIN] | 17.5 | 9.2
O=c1ccc2ccc(O)cc2o1 [UMBELLIFERONE] | 17.3 | 25.4
C/C=C(\C)C(=O)O[C@H]1C[C@@H](OC(C)=O)[C@@]2(C(=O)OC)CO[C@H]3[C@@H](O)[C@@](C)([C@]45O[C@@]4(C)[C@@H]4C[C@H]5O[C@@H]5OC=C[C@@]54O)[C@H]4[C@]1(CO[C@]4(O)C(=O)OC)[C@@H]32 [AZADIRACHTIN A] | 43.8 | 37.3

Reference: ChEMBL document CHEMBL3044683, “Antifeedant activities of tutin and 7-hydroxycoumarin acylation derivatives against Mythimna separata” (2012)
